From PMC8571282 (Nature Communications, 2021)
Where two headings read alike, the source gives them in different places.

Assays:
in vitro = conditions: human, CC50, “M2” HAE
SARS-CoV-2 WA1/2020 = type: in vivo, ferret (Mustela putorius furo); conditions: for Transform of Nasal lavage titer, Mean 2 (treated group) / Transform of Nasal lavage titer, Mean Diff. (Vehicle vs. treated): Fig 3b; for Transform of Nasal lavage titer, Mean 2 (treated group) / Transform of Nasal lavage titer, Mean Diff. (Vehicle vs. treated) / Transform of Nasal Turbinate titer, Mean 2 (treated group) / Transform of Nasal Turbinate titer, Mean Diff. (Vehicle vs. treated): b.i.d.; for Transform of Nasal Turbinate titer, Mean 2 (treated group) / Transform of Nasal Turbinate titer, Mean Diff. (Vehicle vs. treated): Fig 3c; for Transform of Nasal Lavage RNA copies, Mean 2 (treated group) / Transform of Nasal Lavage RNA copies, Mean Diff. (Vehicle vs. treated): Fig 3f; as to Transform of Nasal Lavage RNA copies, Mean 2 (treated group): unit not given here; as to Transform of Nasal Lavage RNA copies, Mean Diff. (Vehicle vs. treated): unit not given here; as to Transform of Nasal lavage titer, Mean 2 (treated group): unit not given here; as to Transform of Nasal lavage titer, Mean Diff. (Vehicle vs. treated): unit not given here

CC(C)C(=O)OCC1OC(C#N)(c2ccc3c(N)ncnn23)C(OC(=O)C(C)C)C1OC(=O)C(C)C (stereo not drawn) [GS-621763]
CC50 at 72 h (in vitro): 39.7 µM | Transform of Nasal lavage titer, Mean 2 (treated group) (SARS-CoV-2 WA1/2020; Day 0, 3 mg/kg): 0.699 | Transform of Nasal lavage titer, Mean Diff. (Vehicle vs. treated) (SARS-CoV-2 WA1/2020; Day 0, 3 mg/kg): 0 | Transform of Nasal lavage titer, Mean 2 (treated group) (SARS-CoV-2 WA1/2020; Day 0, 10 mg/kg): 0.699 | Transform of Nasal lavage titer, Mean Diff. (Vehicle vs. treated) (SARS-CoV-2 WA1/2020; Day 0, 10 mg/kg): 0 | Transform of Nasal lavage titer, Mean 2 (treated group) (SARS-CoV-2 WA1/2020; Day 0.5, 3 mg/kg): 2.775 | Transform of Nasal lavage titer, Mean Diff. (Vehicle vs. treated) (SARS-CoV-2 WA1/2020; Day 0.5, 3 mg/kg): -0.18 | Transform of Nasal lavage titer, Mean 2 (treated group) (SARS-CoV-2 WA1/2020; Day 0.5, 10 mg/kg): 2.413 | Transform of Nasal lavage titer, Mean Diff. (Vehicle vs. treated) (SARS-CoV-2 WA1/2020; Day 0.5, 10 mg/kg): 0.1817 | Transform of Nasal lavage titer, Mean 2 (treated group) (SARS-CoV-2 WA1/2020; Day 1, 3 mg/kg): 2.834 | Transform of Nasal lavage titer, Mean Diff. (Vehicle vs. treated) (SARS-CoV-2 WA1/2020; Day 1, 3 mg/kg): 0.8732 | Transform of Nasal lavage titer, Mean 2 (treated group) (SARS-CoV-2 WA1/2020; Day 1, 10 mg/kg): 2.126 | Transform of Nasal lavage titer, Mean Diff. (Vehicle vs. treated) (SARS-CoV-2 WA1/2020; Day 1, 10 mg/kg): 1.581 | Transform of Nasal lavage titer, Mean 2 (treated group) (SARS-CoV-2 WA1/2020; Day 1.5, 3 mg/kg): 3.42 | Transform of Nasal lavage titer, Mean Diff. (Vehicle vs. treated) (SARS-CoV-2 WA1/2020; Day 1.5, 3 mg/kg): 1.236 | Transform of Nasal lavage titer, Mean 2 (treated group) (SARS-CoV-2 WA1/2020; Day 1.5, 10 mg/kg): 2.277 | Transform of Nasal lavage titer, Mean Diff. (Vehicle vs. treated) (SARS-CoV-2 WA1/2020; Day 1.5, 10 mg/kg): 2.379 | Transform of Nasal lavage titer, Mean 2 (treated group) (SARS-CoV-2 WA1/2020; Day 2, 3 mg/kg): 3.882 | Transform of Nasal lavage titer, Mean Diff. (Vehicle vs. treated) (SARS-CoV-2 WA1/2020; Day 2, 3 mg/kg): 0.3882 | Transform of Nasal lavage titer, Mean 2 (treated group) (SARS-CoV-2 WA1/2020; Day 2, 10 mg/kg): 1.369 | Transform of Nasal lavage titer, Mean Diff. (Vehicle vs. treated) (SARS-CoV-2 WA1/2020; Day 2, 10 mg/kg): 2.901 | Transform of Nasal lavage titer, Mean 2 (treated group) (SARS-CoV-2 WA1/2020; Day 2.5, 3 mg/kg): 3.714 | Transform of Nasal lavage titer, Mean Diff. (Vehicle vs. treated) (SARS-CoV-2 WA1/2020; Day 2.5, 3 mg/kg): 0.4855 | Transform of Nasal lavage titer, Mean 2 (treated group) (SARS-CoV-2 WA1/2020; Day 2.5, 10 mg/kg): 1.314 | Transform of Nasal lavage titer, Mean Diff. (Vehicle vs. treated) (SARS-CoV-2 WA1/2020; Day 2.5, 10 mg/kg): 2.886 | Transform of Nasal lavage titer, Mean 2 (treated group) (SARS-CoV-2 WA1/2020; Day 3, 3 mg/kg): 3.088 | Transform of Nasal lavage titer, Mean Diff. (Vehicle vs. treated) (SARS-CoV-2 WA1/2020; Day 3, 3 mg/kg): 0.713 | Transform of Nasal lavage titer, Mean 2 (treated group) (SARS-CoV-2 WA1/2020; Day 3, 10 mg/kg): 0.8495 | Transform of Nasal lavage titer, Mean Diff. (Vehicle vs. treated) (SARS-CoV-2 WA1/2020; Day 3, 10 mg/kg): 2.952 | Transform of Nasal lavage titer, Mean 2 (treated group) (SARS-CoV-2 WA1/2020; Day 3.5, 3 mg/kg): 3.452 | Transform of Nasal lavage titer, Mean Diff. (Vehicle vs. treated) (SARS-CoV-2 WA1/2020; Day 3.5, 3 mg/kg): 0.4247 | Transform of Nasal lavage titer, Mean 2 (treated group) (SARS-CoV-2 WA1/2020; Day 3.5, 10 mg/kg): 1.758 | Transform of Nasal lavage titer, Mean Diff. (Vehicle vs. treated) (SARS-CoV-2 WA1/2020; Day 3.5, 10 mg/kg): 2.118 | Transform of Nasal lavage titer, Mean 2 (treated group) (SARS-CoV-2 WA1/2020; Day 4, 3 mg/kg): 3.139 | Transform of Nasal lavage titer, Mean Diff. (Vehicle vs. treated) (SARS-CoV-2 WA1/2020; Day 4, 3 mg/kg): 0.849 | Transform of Nasal lavage titer, Mean 2 (treated group) (SARS-CoV-2 WA1/2020; Day 4, 10 mg/kg): 1 | Transform of Nasal lavage titer, Mean Diff. (Vehicle vs. treated) (SARS-CoV-2 WA1/2020; Day 4, 10 mg/kg): 2.988 | Transform of Nasal Turbinate titer, Mean 2 (treated group) (SARS-CoV-2 WA1/2020; 3 mg/kg): 4.557 | Transform of Nasal Turbinate titer, Mean Diff. (Vehicle vs. treated) (SARS-CoV-2 WA1/2020; 3 mg/kg): 1.366 | Transform of Nasal Turbinate titer, Mean 2 (treated group) (SARS-CoV-2 WA1/2020; 10 mg/kg): 3.042 | Transform of Nasal Turbinate titer, Mean Diff. (Vehicle vs. treated) (SARS-CoV-2 WA1/2020; 10 mg/kg): 2.881 | Transform of Nasal Lavage RNA copies, Mean 2 (treated group) (SARS-CoV-2 WA1/2020; Row 1 (time), 3mg/kg b.i.d.): 0 | Transform of Nasal Lavage RNA copies, Mean Diff. (Vehicle vs. treated) (SARS-CoV-2 WA1/2020; Row 1 (time), 3mg/kg b.i.d.): 0 | Transform of Nasal Lavage RNA copies, Mean 2 (treated group) (SARS-CoV-2 WA1/2020; Row 1 (time), 10mg/kg b.i.d.): 0 | Transform of Nasal Lavage RNA copies, Mean Diff. (Vehicle vs. treated) (SARS-CoV-2 WA1/2020; Row 1 (time), 10mg/kg b.i.d.): 0 | Transform of Nasal Lavage RNA copies, Mean 2 (treated group) (SARS-CoV-2 WA1/2020; Row 2 (time), 3mg/kg b.i.d.): 5.027 | Transform of Nasal Lavage RNA copies, Mean Diff. (Vehicle vs. treated) (SARS-CoV-2 WA1/2020; Row 2 (time), 3mg/kg b.i.d.): 0.585 | Transform of Nasal Lavage RNA copies, Mean 2 (treated group) (SARS-CoV-2 WA1/2020; Row 2 (time), 10mg/kg b.i.d.): 4.315 | Transform of Nasal Lavage RNA copies, Mean Diff. (Vehicle vs. treated) (SARS-CoV-2 WA1/2020; Row 2 (time), 10mg/kg b.i.d.): 1.297 | Transform of Nasal Lavage RNA copies, Mean 2 (treated group) (SARS-CoV-2 WA1/2020; Row 3 (time), 3mg/kg b.i.d.): 5.927 | Transform of Nasal Lavage RNA copies, Mean Diff. (Vehicle vs. treated) (SARS-CoV-2 WA1/2020; Row 3 (time), 3mg/kg b.i.d.): 0.2134 | Transform of Nasal Lavage RNA copies, Mean 2 (treated group) (SARS-CoV-2 WA1/2020; Row 3 (time), 10mg/kg b.i.d.): 4.129 | Transform of Nasal Lavage RNA copies, Mean Diff. (Vehicle vs. treated) (SARS-CoV-2 WA1/2020; Row 3 (time), 10mg/kg b.i.d.): 2.012 | Transform of Nasal Lavage RNA copies, Mean 2 (treated group) (SARS-CoV-2 WA1/2020; Row 4 (time), 3mg/kg b.i.d.): 5.77 | Transform of Nasal Lavage RNA copies, Mean Diff. (Vehicle vs. treated) (SARS-CoV-2 WA1/2020; Row 4 (time), 3mg/kg b.i.d.): -0.1446 | Transform of Nasal Lavage RNA copies, Mean 2 (treated group) (SARS-CoV-2 WA1/2020; Row 4 (time), 10mg/kg b.i.d.): 3.777 | Transform of Nasal Lavage RNA copies, Mean Diff. (Vehicle vs. treated) (SARS-CoV-2 WA1/2020; Row 4 (time), 10mg/kg b.i.d.): 1.849
